“Also recorded” adds a separate entry of the source.
Columns and labels:
α1A-AR [1] = target: T1, α1A-AR (Homo sapiens, UniProt P35348); assay: Competition binding with [125I]HEAT at α1A-AR (Rat-1 fibroblast membranes); set-up: expressed in transfected cells; host or cells: Rat-1 fibroblast cells
T1 sequence (P35348 1-466): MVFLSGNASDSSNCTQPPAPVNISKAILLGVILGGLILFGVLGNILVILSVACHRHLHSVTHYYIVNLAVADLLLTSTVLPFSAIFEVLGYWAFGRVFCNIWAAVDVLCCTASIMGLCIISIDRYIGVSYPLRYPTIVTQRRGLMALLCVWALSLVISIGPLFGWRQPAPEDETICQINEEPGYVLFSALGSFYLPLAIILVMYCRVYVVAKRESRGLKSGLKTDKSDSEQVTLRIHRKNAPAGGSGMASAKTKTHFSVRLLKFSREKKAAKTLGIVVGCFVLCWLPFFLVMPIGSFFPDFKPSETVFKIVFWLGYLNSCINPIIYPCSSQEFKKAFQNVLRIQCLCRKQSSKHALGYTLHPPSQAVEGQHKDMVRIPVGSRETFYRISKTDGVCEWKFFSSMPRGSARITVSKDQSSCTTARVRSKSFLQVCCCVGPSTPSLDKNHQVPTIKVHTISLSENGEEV
Method: Competition binding assays: […] Assays were performed in duplicate in HEM buffer, in a total assay volume of 1000 μl. […] The above conditions will convert all the conformations of the receptor into a single low affinity site. To show both high and low affinity sites of the receptor (typically seen with GPCR agonists), the GTP is removed from the binding buffer. Nonspecific binding was determined experimentally in the presence of 10^−4 M phentolamine. Unbound radioactivity was separated from membrane-bound radioactivity by filtration through Whatman GF/C filter paper. Filters are washed five times with 5 ml of cold HEM buffer containing 0.5 mMGTP (if added to the binding buffer but not if it was not added to the binding buffer). Bound radioactivity remaining on the filters was counted on an ICN gamma counter operating at 79.8% efficiency. Data are analyzed using Graphpad Prism.

α1A-AR [2] = target: T1, α1A-AR; assay: cAMP assay at α1A-AR; type: cell-based; set-up: expressed in transfected cells; host or cells: Rat-1 fibroblast cells; conditions: for effect on epinephrine-mediated cAMP response at the α1A-AR: 10^−5M to 10^−7M of compound; for effect on norepinephrine-mediated cAMP response at the α1A-AR: 10^−5M to 10^−9M of compound
Method: cAMP assay: Cells expressing a single α1-adrenergic receptor subtype are washed and re-plated into 24-well plates in DMEM media without serum at approximately 2.4×10^4 cells/well. Cells are allowed to rest till the next day in a CO2 incubator at 37° C. The cells are washed twice with DMEM (no serum), then 1 ml of DMEM is added to each well. Cells are pre-incubated for 45 mins-1 hour at 37° C. in a CO2 incubator with 10 uM propranolol, followed by 100 uM IBMX for 30 minutes. Final DMSO concentration is at 0.05%. Norepinephrine or epinephrine is added in a dose response (1 dose per well) in addition to one of the Compounds 1-10 at one concentration (i.e. 10^−5M). Cells are incubated for another 30 mins at 37° C. in a CO2 incubator. The reaction is concluded by aspirating the media and adding 0.1M HCL. The mixture is incubated for 20 mins at room temperature. The cells are scraped and suspended until homogenous. The mixture is centrifuged at 1000 g for 10 mins and the supernatant assayed the same day according to a manufacturer's cAMP kit (Cayman Select Cyclic AMP EIA kit #501040).

α1A-AR [3] = target: T1, α1A-AR; assay: Total inositol phosphate assay at α1A-AR; type: cell-based; set-up: expressed in transfected cells; host or cells: Rat-1 fibroblast cells; conditions: for stimulation of inositol phosphate / agonist activity by the compound by itself: compound alone
Method: Total Inositol Phosphate assay: Cells expressing a single α1-adrenergic receptor subtypes are washed and re-plated into 6-well plates containing DMEM media at approximately 5×10^5 cells/well. Cells are allowed to rest till the next day in a CO2 incubator at 37° C. The cells are washed twice with DMEM (no serum), then 2 ml of DMEM is added to each well. 2 ul of ^3H-inositol (at 1 uCi/mL, Perkin-Elmer NET 114 005MC) and 10 mM LiCl is added to each well. The cells are incubated for 1 hour at 37° C. in a CO2 incubator. […] The cells are incubated again for 1 hour at 37° C. in a CO2 incubator. The media is aspirated and 1 mL of ice-cold 0.4M perchloric acid is added. The cells are scraped, transferred to a vial, then 1 mL 0.72M KOH/0.6M KHCO3 is added, the tube vortexed and the contents centrifuged at 2000 rpm for 10 mins. The supernatant is removed and applied to BioRad polyprep columns packed with 1 mL of AG1-X8 resin (BioRad AG1-X8 resin 100-200 mesh #140-1444) in 0.1M formic acid in a holding tray which is over a plastic catch tray. The supernatant is allowed to naturally drip through the column then washed with 8 ml of 0.1M formic acid (2 ml at a time). The columns are transferred via the holding tray to a box of 20 ml scintillation vials so that the columns drip directly into the vials. Total inositol phosphates are eluted off the column with 2 ml of 0.1M formic acid/1M ammonium formate. The columns are eluted a second time into a new scintillation vial with another 2 ml of 0.1M formic acid/1M ammonium formate. 18 ml of Ecoscint A is added to each scintillation vial and vortexed. The vials are allowed to dark adapt overnight at room temperature to reduce autofluorescence. The vials are counted in a scintillation counter on the tritium channel and the cpms from the first and second fractions eluted off the columns are added together.

α1-ARs = conditions: read-out: calculated Ki; cited from earlier work
Normal mice = conditions: cited from earlier work
α1A-AR [4] = target: T1, α1A-AR; assay: Effect of compound on binding affinity of norepinephrine, epinephrine or other ligands at α1A-AR; set-up: expressed in transfected cells; host or cells: Rat-1 fibroblast cells; conditions: for effect on binding affinity of epinephrine at the α1A-AR: 10^−5M (highest dose tested); for effect on binding affinity of norepinephrine at the α1A-AR: fixed dose of compound, 10^−5M to 10^−9M
Method: Competition binding assays: These compounds were characterized for their ligand binding properties at the α1-AR subtypes. The binding affinities of Compounds 1-10 were determined in a series of competition-binding experiments with the α1-AR-selective antagonist [^125I]HEAT as the radioligand. Assays were performed in duplicate in HEM buffer, in a total assay volume of 1000 μl. Radioligand binding assays are composed of 5 ug of membranes, harvested from Rat-1 fibroblast cells expressing only one of the alpha1-AR subtypes, HEM buffer containing GTP (composed of 20 mM HEPES, pH 7.4, 1.4 mM EGTA, 12.5 mM MgCl2, pH to 7.4), 0.5 mM GTP, 35-80 pM^125I-HEAT, and various doses of norepinephrine or epinephrine and incubated with shaking at 25° C. for 1-2 hours. The above conditions will convert all the conformations of the receptor into a single low affinity site. To show both high and low affinity sites of the receptor (typically seen with GPCR agonists), the GTP is removed from the binding buffer. Nonspecific binding was determined experimentally in the presence of 10^−4 M phentolamine. Unbound radioactivity was separated from membrane-bound radioactivity by filtration through Whatman GF/C filter paper. Filters are washed five times with 5 ml of cold HEM buffer containing 0.5 mMGTP (if added to the binding buffer but not if it was not added to the binding buffer). Bound radioactivity remaining on the filters was counted on an ICN gamma counter operating at 79.8% efficiency. Data are analyzed using Graphpad Prism.
To determine the effects of compounds 1-10 on the binding affinity of norepinephrine or epinephrine, the competition binding assay was repeated as above with one dose of each individual compound (i.e. 10^−5M) added to each concentration point. Data are normalized to the norepinephrine or epinephrine binding curve alone without the addition of the compound to measure its effect on binding.

SMILES	binding behaviour against radiolabeled antagonist 125I-HEAT (full inhibition; competitive or allosteric) (α1A-AR [1])	selectivity for the α1A-AR over the α1B-AR and α1D-AR subtypes (α1A-AR [1]) [fold]	PAM activity / PAM type (α1A-AR [2])	effect on epinephrine-mediated cAMP response at the α1A-AR (α1A-AR [2])	effect on norepinephrine-mediated cAMP response at the α1A-AR (α1A-AR [2])	effect on epinephrine-mediated inositol phosphate response at the α1A-AR (α1A-AR [3])	effect on norepinephrine-mediated inositol phosphate response at the α1A-AR (α1A-AR [3])	stimulation of inositol phosphate / agonist activity by the compound by itself (α1A-AR [3])	Ki (α1-ARs) [nM]	cognition (Normal mice)	neurogenesis (Normal mice)	effect on binding affinity of epinephrine at the α1A-AR (α1A-AR [4])	effect on binding affinity of epinephrine at the α1A-AR (α1A-AR [4]; listed as Cirazoline)	effect on binding affinity of norepinephrine at the α1A-AR (α1A-AR [4])	effect on binding affinity of norepinephrine at the α1A-AR (α1A-AR [4]; listed as Cirazoline)
Cc1c(OCC2=NCCN2)ccc(Cl)c1NS(C)(=O)=O.Cl [RO115-1240]	competitive not allosteric behavior	100	no evidence of PAM activity	competitive, not PAM behavior; also recorded: shift the curve to the right to lower potency (inhibition)	antagonist at cAMP; also recorded: competitive, not PAM behavior; also recorded: shift the curve to the right to lower potency (inhibition)	competitive/noncompetitive partial agonism, not PAM behavior	competitive/noncompetitive partial agonism, not PAM behavior	weak partial agonist; also recorded: significant IP response on its own	–	–	–	–	–	–	–
COc1cc2nc(N3CCN(C(=O)c4ccco4)CC3)nc(N)c2cc1OC [prazosin]	–	–	–	–	–	–	–	–	1	–	–	–	–	–	–
c1ccc(C2CC2)c(OCC2=NCCN2)c1 [cirazoline]	–	–	no evidence of PAM activity	competitive, not PAM behavior	competitive, not PAM behavior	competitive/noncompetitive partial agonism, not PAM behavior	competitive/noncompetitive partial agonism, not PAM behavior	full agonist at the IP response; also recorded: strong agonist at the IP response	–	increased	increased	totally inhibit the binding	fully inhibit	totally inhibit the binding	does not increase the affinity of norepinephrine

Reference: patent publication US12384751B2, “Allosteric activators of the ALPHA1A-adrenergic receptor” (The Cleveland Clinic Foundation, priority 2019, dated 2025)
